Experimental data published in patent US20110033390A1, “MR IMAGING AGENT OR MEDIUM COMPRESSING HYPERPOLARISED 13C ALANINE AND METHODS OF IMAGING WHEREIN SUCH AN IMAGING MEDIUM IS USED” (priority 2008, published 2011).
Values belong to the molecule of their own block, whether it stands above or below them.

How the values were obtained:
[1] = Liquid state polarisation after dissolution and neutralization, by liquid state 13C-NMR at 400 MHz; format: physicochemical
Protocol: In a similar way, the level of polarisation for hyperpolarised ^13C-alanine in solution may be determined by liquid state NMR measurements. Again the signal intensity of the hyperpolarised ^13C-alanine in solution is compared with the signal intensity of the ^13C-alanine in solution before polarisation. The level of polarisation is then calculated from the ratio of the signal intensities of ^13C-alanine before and after polarisation.
After 150 minutes of dynamic nuclear polarisation, the obtained frozen polarised solution was dissolved in a dissolution medium containing 6 ml of a phosphate buffer (20 mM, pH 6.8, 100 mg/l EDTA), aqueous NaOH (27 μl 12 M solution, 1 eq) and 30 mg NaCl. The pH of the final liquid was 6.8.
Liquid state polarisation was determined by liquid state ^13C-NMR at 400 MHz to be 35%.
After 120 minutes of dynamic nuclear polarisation, the obtained frozen polarised solution was dissolved in a dissolution medium containing 6 ml BIS TRIS (40 mM, pH 6, 100 mg/l EDTA, 0.9% NaCl). The pH of the final solution containing the dissolved composition was 6.
Liquid state polarisation was determined by liquid state ^13C-NMR at 400 MHz to be 16%.

Hep-G2 cells = assay: In vitro 13C-MR spectroscopy with hyperpolarised 13C1-alanine imaging medium; format: cell-based, human; settings: 3 mM 13C1-alanine, 10x10^6 Hep-G2 cells, 20 s incubation
Protocol: An imaging medium was prepared as described in Example 1 and 100 μl of the imaging medium (3 mM ^13C1-alanine) was mixed into 10×10^6 Hep-G2 cells (human hepatocellular carcinoma cells). A single ^13C-MR spectrum was acquired after a total of 20 s incubation time with a 90 degree RF pulse. ^13C1-pyruvate and ^13C1-lactate were identified in the spectrum. The conversion of alanine was approximately 0.1% to both lactate and pyruvate.

mice (whole body) = assay: In vivo 13C-MR spectroscopy in mice (whole body); set-up: species or system mouse
Protocol: 175 μl of an imaging medium which was prepared as described in Example 1 was injected into a C57B1/6 mouse over a time period of 6 s. The ^13C1-alanine concentration in said imaging medium was approximately 50 mM and 3 animals were used in the experiment. A rat size whole body coil (tuned for proton and carbon) was placed over the animal and ^13C-MR spectroscopy was carried out in a 9.4 T magnet. A dynamic set of ^13C-MR spectra (in total 5) was acquired every 5 s with a 15 degree RF pulse. Metabolism was seen to ^13C1-lactate (approximately 1% of the ^13C1-lactate signal), see FIG. 1. […] The following decay time was calculated from the MR spectra: ^13C1-lactate 33 s. […] It is thus favourable to detect the lactate signal which due to its slow decay provides a larger MR detection window.

mouse liver = assay: In vivo 13C-MR spectroscopy in mice (liver); settings: C57B1/6 mouse, surface coil over liver
Protocol: 175 μl of an imaging medium which was prepared as described in Example 1 was injected into a C57B1/6 mouse over a time period of 6 s. The ^13C1-alanine concentration in said imaging medium was approximately 55 mM. A surface coil (tuned for proton and carbon) was positioned over the liver of the animal and ^13C-MR spectroscopy was carried out in a 9.4 T magnet. A dynamic set of ^13C-MR spectra (in total 15) was acquired every 5 s with a 30 degree RF pulse. This experiment confirmed that ^13C1-lactate is building up during the time course of the experiment, see FIG. 3.

mouse heart = assay: In vivo 13C-MR spectroscopy in mice (heart)
Protocol: 175 μl of an imaging medium which was prepared as described in Example 1 was injected into a C57B1/6 mouse over a time period of 6 s. The ^13C1-alanine concentration in said imaging medium was about 55 mM. A surface coil (tuned for proton and carbon) was positioned over the heart of the animal and ^13C-MR spectroscopy was carried out in a 9.4 T magnet. A dynamic set of ^13C-MR spectra (in total 10) was acquired every 5 s with a 30 degree RF pulse. […] The lactate seen in the experiment is expected to originate from pyruvate. […] Comparing Examples 5 and 6, a different metabolic profile is obtained for the liver and the heart showing that ^13C-alanine is a tissue specific metabolic marker.

[2] = Solid state polarisation after DNP, by solid state 13C-NMR; format: physicochemical; settings: DNP at 1.2 K, 3.35 T, microwave 93.90 GHz; trityl radical and Gd-chelate present
Description: The level of polarisation may for instance be determined by solid state ^13C-NMR measurements in solid hyperpolarised ^13C-alanine, e.g. solid hyperpolarised ^13C-alanine obtained by dynamic nuclear polarisation (DNP) of ^13C-alanine. The solid state ^13C-NMR measurement preferably consists of a simple pulse-acquire NMR sequence using a low flip angle. The signal intensity of the hyperpolarised ^13C-alanine in the NMR spectrum is compared with signal intensity of ^13C-alanine in a NMR spectrum acquired before the polarisation process. The level of polarisation is then calculated from the ratio of the signal intensities of before and after polarisation.
The probe is inserted into the probe-retaining container, submerged in the liquid helium and irradiated with microwaves, preferably at a frequency of about 94 GHz at 200 mW. The level of polarisation may for instance be monitored by solid state ^13C-NMR measurements of the ^13C-nuclei in the frozen composition comprising the hyperpolarised sample. […] The level of polarisation is then calculated from the ratio of the signal intensities of before and after polarisation.
32.5 mg (0.258 mmol) of the ^13C1-alaninium chloride obtained in Example 1a was added to 42 mg of a stock solution in a micro test tube. […] Polarisation was followed by solid state ^13C-NMR and the solid state polarisation was determined to be 40%. […]

[3] = mouse, in vivo
Protocol: In another preferred embodiment, the imaging medium comprising hyperpolarised ^13C-alanine is administered repeatedly, thus allowing dynamic studies. This is a further advantage of the method according to the invention compared to other MR detection methods using conventional MR contrast agents which—in higher doses—may show toxic effects.

[4] = Relaxation / loss of polarisation in solution as a function of pH; format: physicochemical; settings: solutions with a pH above 7
Description: If the sample used in the composition for DNP is a carboxylate salt of ^13C-alanine, said salt needs to be converted to the free ^13C-alanine by reaction (neutralization) with an acid. […] Thus, if a carboxylate salt of ^13C-alanine was used in the composition for DNP, the liquefaction and neutralization of the solid composition comprising the hyperpolarised carboxylate salt of ^13C-alanine needs to be carried out carefully in order to avoid loss of polarisation. Neutralization may be carried out simultaneously or subsequently to the liquefaction, for the latter it must be taken care that neutralization is carried out quickly and directly after liquefaction. Thus, in one embodiment the liquefaction is carried out by melting or dissolution of the frozen composition and neutralization with an acid is quickly carried out after the frozen composition was dissolved/melted. In another embodiment, liquefaction and neutralization are carried out simultaneously, e.g. by dissolving the frozen composition in a dissolution medium which is or contains an acid that is capable of converting the hyperpolarised carboxylate salt of ^13C-alanine to ^13C-alanine. In yet another embodiment the acid is added to the probe-retaining cup which contains the frozen composition in the dynamic nuclear polarisation process. […] The most preferred acid is HCl since it is cheap and readily available.

liquid state polarisation ([1]; Example 1c: from 13C1-alaninium chloride after 150 min DNP, dissolved in phosphate buffer/NaOH, final pH 6.8): 35%
liquid state polarisation ([1]; Example 2: from sodium 13C1-2-amino-propanoate after 120 min DNP, dissolved in BIS TRIS, HCl neutralization, final pH 6): 16%
conversion of alanine to lactate (Hep-G2 cells): approximately 0.1%
conversion of alanine to pyruvate (Hep-G2 cells): approximately 0.1%
metabolism to 13C1-lactate (relative signal) (mice (whole body); C57B1/6 mouse, 175 µl of approx. 50 mM injected over 6 s, whole body coil, 9.4 T): approximately 1%
pyruvate signal (mice (whole body); mouse whole body): No pyruvate signal could be detected
13C1-lactate signal over the time course (mouse liver; 175 µl of approx. 55 mM): building up
13C1-pyruvate and 13C1-bicarbonate signals (mouse liver; 15 combined spectra): could be detected
build-up of 13C1-lactate (mouse heart; C57B1/6 mouse, 175 µl of about 55 mM, surface coil over heart): noteworthy slow
pyruvate signal (mouse heart; mouse heart): absence of pyruvate
Structure (SMILES): CC(N)[13C](=O)O (stereo not drawn) [^13C1-alanine]

solid state polarisation [2]: 40%
Structure (SMILES): C[C@H](N)[13C](=O)O.Cl [^13C1-alaninium chloride]

Structure (SMILES): C[C@H](O)[13C](=O)O [^13C1-lactate]
decay time calculated from the MR spectra (mice (whole body); 13C1-lactate signal after injection of hyperpolarised 13C1-alanine, mouse whole body): 33 s

Structure (SMILES): CC(N)C(=O)O (stereo not drawn) [hyperpolarised ^13C-alanine, 2-amino-propanoic acid]
tolerability [3]: well tolerated
relaxation rate / loss of polarisation [4]: high relaxation rates

solid state polarisation [2]: 18%
Structure (SMILES): CC(N)[13C](=O)[O-].[Na+] (stereo not drawn) [sodium ^13C1-2-amino-propanoate]
